Key:
[1] = target: T1, TMEM173 (Homo sapiens, UniProt Q86WV6, G230A/H232R/R293Q/R71H); experiment: ISRE-luciferase assay in THP-1 Lucia ISG cells; assay type: cell-based; conditions: 24 h
T1 construct: endogenous in cells; host or cells: THP-1 Lucia ISG cells
Experimental: FIG. 12A is a pie chart showing the fraction of protein targets of active compounds with available crystal structures containing the corresponding liganded cysteine residues. FIG. 12B is a computer-generated model of BPK-21 and BPK-25 interactions with C91 of stimulator of interferon genes protein (STING, or TMEM173). FIG. 12C is a graph of IRF response of THP1-Lucia™ ISG cells. THP-1 Lucia ISG cells were treated with DMSO or BPK-25 in the presence of viral dsDNA (2 μg/mL) for 24 h and the levels of IRF-induced Lucia luciferase were determined using QUANTI-Luc™. Cell viability was measured using CellTiter-Glo™ assay. Luminescence signals for test samples were normalized to DMSO-treated samples and reported as relative light units (RLU)±SEM; n=3/group. […] Relative expression of IL-6, IL-1β, and IP10 (CXCL10) genes was measured by qPCR and normalized to actin. […] GFP-positive cells were further analyzed for CD25 and CD69 expression levels by measuring mean fluorescence intensity of the PE- (PE-CD25) and APC-channels (APC-CD69). […]
THP-1 Lucia ISG cells were resuspended in low-serum growth media (2% FBS) at a density of 5×10^5 cells/mL and treated with BPK-25 or vehicle (DMSO) in the presence of viral dsDNA (2 μg/mL). […] For each cell type and assay, luminescence signals for test article samples were normalized to vehicle-treated samples and reported as relative light units (RLU).

[2] = test system: primary human T cells; experiment: Multidimensional screen for inhibition of T cell activation (IL-2, IFN-γ secretion, CD25, CD69 expression); assay type: cell-based; conditions: electrophilic compounds 10 μM each (DMF 50 μM), 24 h, anti-CD3/anti-CD28 activation
Experimental: FIG. 4A-4D is an overview of a multidimensional screen to identify elaborated electrophilic compounds that suppress T cell activation. FIG. 4A is a workflow for T-cell activation screen. Primary human T cells were treated with a focused library of elaborated electrophilic compounds (10 μM, structures of compounds in FIG. 12), a positive control immunosuppressive compound (DMF, 50 μM), or DMSO under TCR-stimulating conditions in 96-well plates pre-coated with 5 μg/mL αCD3 and 2 μg/mL αCD28 for 24 h. T cell activation was measured using a combination of markers, including IL2 and IFNγ secretion, as well as surface expression of CD25 and CD69. T cell viability was measured by flow cytometry using a Fixable Near-IR LIVE/DEAD™ Cell Stain. Compounds were considered as active hits if they reduced IL2 cytokine production by >65% with <15% reduction in T cell viability in the cytotoxicity assay compared to DMSO control. […]
The levels of secreted IL2, IFNγ and TNFα after incubating T cells in the presence of DMSO or electrophilic compounds under TCR-stimulating conditions were measured using DuoSet ELISA cytokine kits (R&D Systems) in clear microplates (R&D Systems) according to manufacturer's instructions and read using a CLARIOstar (BMG Labtech) plate reader (450 nm). All cytokine concentrations were calculated according to the standard curve generated for each experiment.

T1 sequence (Q86WV6 whole entry R71H/G230A/H232R/R293Q): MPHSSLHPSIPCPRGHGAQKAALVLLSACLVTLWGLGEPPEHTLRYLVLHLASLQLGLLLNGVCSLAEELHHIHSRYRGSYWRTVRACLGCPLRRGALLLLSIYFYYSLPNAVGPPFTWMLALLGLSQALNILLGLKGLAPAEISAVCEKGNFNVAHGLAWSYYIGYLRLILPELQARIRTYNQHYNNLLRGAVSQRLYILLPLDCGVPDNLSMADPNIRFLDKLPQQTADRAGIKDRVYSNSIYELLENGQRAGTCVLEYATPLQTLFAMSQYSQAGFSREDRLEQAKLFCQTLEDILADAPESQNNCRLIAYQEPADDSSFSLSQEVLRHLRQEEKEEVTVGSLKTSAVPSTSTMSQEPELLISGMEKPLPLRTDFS

SMILES	TMEM173 activation in human monocyte cell line THP1 [1]	suppress T cell activation [2] [%]
C=CC(=O)N(Cc1cccc(Cl)n1)c1ccc(C(=O)Nc2ccccc2)nc1 [BPK-25]	inhibited TMEM173 activation	–
COC(=O)/C=C/C(=O)OC [DMF, reference compound]	–	> 65
